Experimental data: PubChem BioAssay (NCI)
“And” between values parts separate entries of the source, which are not always exact repeats. Identical values can stand only once.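 All cell lines were grown in 96-well plates and treated with compound for 48 hours. GI50 marks 50% less growth. At the TGI there is no net growth.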 Where a SMILES comes first, the peptide text is derived from it. The star is where a group is joined. Trt = c1ccc(C(c2ccccc2)(c2ccccc2)*)cc1; Cbz = O=C(OCc1ccccc1)*

Legend:
Assay in all cases: inhibition of tumour cell growth, NCI panel, 48 h
[1] = test system: SNB-75 CNS
[2] = test system: MDA-MB-231 breast
[3] = test system: MDA-MB-435
[4] = test system: MALME-3M melanoma
[5] = test system: NCI-H23 lung
[6] = test system: HCT-116 colon
[7] = test system: UO-31 renal
[8] = test system: SK-OV-3 ovarian
[9] = test system: SR leukemia
[10] = test system: T-47D breast

Row | Structure (SMILES) | TGI [1] | TGI [2] [µM] | TGI [3] | TGI [4] | TGI [5] [µM] | TGI [6] [µM] | TGI [7] [µM] | TGI [8] [µM] | TGI [9] [µM] | TGI [10] [µM] | GI50 [1] [µM] | GI50 [2] [µM] | GI50 [3] | GI50 [4] [µM] | GI50 [5] [µM] | GI50 [6] [µM] | GI50 [7] [µM] | GI50 [8] [µM] | GI50 [9] [µM] | GI50 [10] [µM]
1 | Cc1ccc(CNc2ccc(Br)cc2)cc1 | > 100 µM | > 100 | > 100 µM | 64 µM | > 100 | > 100 | 49.2 | > 100 | > 100 | > 100 | – | – | – | – | – | – | – | – | – | –
2 | CO[C@H]1C[C@@H]2CC[C@@H](C)[C@@](O)(O2)C(=O)C(=O)N2CCCC[C@H]2C(=O)O[C@H]([C@H](C)C[C@@H]2CC[C@@H](OC(=O)C(C)(CO)CO)[C@H](OC)C2)CC(=O)[C@H](C)/C=C(\C)[C@@H](O)[C@@H](OC)C(=O)[C@H](C)C[C@H](C)\C=C/C=C/C=C/1C | > 10 µM | > 10 | > 10 µM | > 10 µM | > 10 | > 10 | > 10 | > 10 | > 10 | > 10 | < 0.001 | > 4.32 | 2.36 µM | 0.00766 | 0.0866 | > 10 | 0.00102 | 0.00139 | 0.00251 | –
3 | CCCn1c2c(c3ccccc3c1=O)C(=O)c1ccccc1-2 | > 100 µM | > 100 | > 100 µM | > 100 µM | > 100 | > 100 | > 100 | > 100 | > 100 | > 100 | – | – | – | – | – | – | – | – | – | –
4 | COC(=O)C(CO)NC(=O)C(CSC(c1ccccc1)(c1ccccc1)c1ccccc1)NC(=O)OCc1ccccc1 (stereo not drawn) (Cbz-Cys(Trt)-Ser-OMe; configuration not given here) | 33.7 µM | 27.8 | 30.2 µM | 28.5 µM | 40.8 | 42.1 | 28.5 | > 90.1 | 0.221 | > 52 | – | – | – | – | – | – | – | – | – | –
5 | O=C1/C(=C/c2ccc(Cl)c(Cl)c2)CN(C(=O)C(Cl)Cl)C/C1=C\c1ccc(Cl)c(Cl)c1 | 0.484 µM | 1.16 | 0.546 µM | 0.669 µM | 0.567 | 0.12 | 0.267 | 1.82 | > 100 | 1.77 | 0.174 | 0.237 | 0.222 µM | 0.237 | 0.136 | 0.0315 | 0.133 | 0.558 | 0.0267 | 0.256
6 | C/C(=N\O)c1ccc2ccc3ccccc3c2c1 | > 100 µM | > 100 | 46.9 µM | 50.5 µM | > 100 | > 100 | > 100 | > 100 | 48.7 | > 100 | – | – | – | – | – | – | – | – | – | –
7 | CCCCN(CCCC)C(=O)[C@H](CC)[C@@H]1CC[C@@H](C)[C@@H]([C@H](C)[C@@H](O)[C@@H](C)C(=O)[C@H](CC)C2O[C@]3(C=C[C@@H](O)[C@]4(CC[C@@](C)([C@H]5CC[C@](O)(CC)[C@H](C)O5)O4)O3)[C@H](C)C[C@@H]2C)O1 (stereo partly drawn) | 26.9 µM | 3.19 | 10.1 µM | 4.16 µM | 5.96 | 6.9 | 8.6 | > 100 | 8.53 | 63.8 | 1.78 | 1.57 | 2.92 µM | 1.87 | 2.17 | 2.39 | 2.26 | 3.38 | 2.89 | 2.34
8 | CC1CC2C3CCC4=CC(=O)C=CC4(C)C3(F)C(O)CC2(C)C1(O)C(=O)COP(=O)(O)O (stereo not drawn) | > 500 µM | > 500 | > 500 µM | > 500 µM | > 500 | > 500 | > 500 | > 500 | > 100 | > 500 | > 500 | > 500 | > 500 µM | > 500 | > 500 | > 500 | > 500 | > 500 | – | > 500
9 | N#CCn1c(=O)c(Oc2ccc(F)cc2F)cc2cnc(NC3CCOCC3)nc21 | > 25 µM | > 25 | > 25 µM | > 25 µM | > 25 | > 25 | > 25 | > 25 | > 25 | > 25 | > 25 | > 25 | > 25 µM | > 22.5 | > 25 | > 25 | > 19.8 | > 25 | > 25 | 12.3
10 | C=C1C[C@H]2C=Nc3cc(OCCCOc4cc5c(cc4OC)C(=O)N4CC(=C)C[C@H]4C=N5)c(OC)cc3C(=O)N2C1 | 0.0145 µM and < 0.0155 µM | 0.0452 | 0.0339 µM and < 0.215 µM | 0.0292 µM and < 0.0144 µM | 0.0158 | – | 0.289 | 33.1 | 0.218 | 3.53 | 0.00178 | 0.0185 | 0.0134 µM and < 0.0148 µM | 0.0122 | – | – | – | < 0.0147 | – | 0.0244
